In data set [1] the test system is HL-60 cells. The experiment in a line: apoptosis by flow cytometric DNA analysis, HL-60 cells. Type of data set: cell-based. On the technique in general: In flow cytometry, cells or beads pass a laser one at a time.
Description: DNA content analysis by flow cytometry:
(§8) Cells were fixed by adding ~10^7 cells suspended in 1 ml of PBS of 1 ml 80% ethanol at -20° C. and stored for 48-120 hrs. After the cells were washed twice with PBS, the cells were stained with 20 mg/ml chromomycin A3 dissolved in PBS containing 2 mM MgCl2 by incubation in subdued light (30 min; 4° C.). The cells were then analyzed using a FACScan flow cytometer (Becton Dickinson, Mountain View, Calif.).
The subject of data set [2] is U-937 cells. The experiment in a line: apoptosis by flow cytometric DNA analysis, U-937 cells. Type of data set: cell-based.
Description: DNA content analysis by flow cytometry:
as §8
Data set [3] relates to HL-60 cells. The experiment in a line: live cell counting with trypan blue (cell death/proliferation), HL-60 cells. Type of data set: cell-based. On the procedure: (§1) The HL-60 cells were maintained in RPMI 1640 supplmented with 10% fetal calf serum, 100 units/ml penicillin, […] streptomycin and 2 mM L-glutamine. The cells were split every third day, and 2 days before each experiment cultures were diluted to 2×10^5 cells/ml. For analysis of DNA content, aliquots of 2 ml were placed into 12-well flat-bottomed plates (Costar, Cambridge, Mass., U.S.A.) containing 2~6 μl test-compound solutions at defined concentrations or 6 μl DMSO (diluting medium). Live cell counting was carried out using 0.1% trypan blue.
(§2) In the latter assay, cell death was studied in HL-60 cells (FIGS. 11A-B) and in U-937 cells (FIGS. 11C-D) over a time course of 9 days. Cells in culture receiving no drug treatment proliferated geometrically until nearly the end of the experiment.

Data set [4] concerns U-937 cells. The experiment in a line: live cell counting with trypan blue (cell death/proliferation), U-937 cells. The class given is cell-based. On the procedure: as §1, §2
The test system of data set [5] is HL-60 cells. Description: in situ end-labeling of fragmented nuclear DNA (TUNEL), HL-60 cells. The class given is cell-based. On the procedure:
(§3) Cells were fixed by immersing slides in 4% methanol-free formaldehyde in PBS at pH 7.4, 4° C., for 25 min. Fixed cells were permeabilized in 0.2% Triton® X-100 in PBS at 4° C. for 5 min. After preincubation with […] Promega equilibration buffer for 10 min at room temperature, the cells were covered with 50 μl TdT incubation buffer and a coverslip and maintained at 37° C. for 60 min inside the dark humidified chamber to protect from dry and direct light. In order to stop the reaction, the coverslip was removed and the slides were immersed in 2×SSC for 15 min at room temperature. The cells were restained by propidium iodide 1 μg/ml in PBS for 15 min. After every step, the cells were rinsed 2-3 times with fresh PBS for 5 min each. Finally, the glass slides were sealed with nail polish. The slides were stored at 4° C. in the dark.
(§4) The evidence that DNA strand breaks, characteristic of apoptosis, are induced by the A3 antagonists was obtained using in situ end-labelingin-situ of fragmented nuclear DNA by terminal deoxynucleotidyl transferase (TUNEL method, Cooke, H., Trends in Biotech., 10, 23 (1992)), which incorporates a fluorescent label at the 3'-ends. […] In the control cultures and in those treated with 10 nM Cl-IB-MECA alone, spontaneous apoptosis occured in only 5-7% of the cells (Table 17). […] The reversal of antagonist-induced apoptosis by the agonist is similar to that observed for the growth curves, except that both agonist and antagonist were applied at lower concentrations.

Data set [6] has as its system U-937 cells. Description: in situ end-labeling of fragmented nuclear DNA (TUNEL), U-937 cells. The class given is cell-based. As to the method:
as §3, §4

Data set [7] has as its system bak protein in HL-60 cells. Description: expression of apoptosis-inducing protein bak by immunofluorescence, HL-60 cells. The class given is cell-based. As to the method:
(§5) Cells were fixed as following steps: 10 min with 1% formalin in PBS, 5 min with […] methanol and 2 min with ice cold acetone, then permebilized with 0.1% Nonidet P-40 for 20 min. After the preparation, the specimens were incubated step by step: 10% goat serum in PBS for 20 min, mouse monoclonal anti-bak antibody (5 μg/ml PBS-BSA) for 60 min, Rhodamine (TRITC)-conjugated AffiniPure Goat Anti-mouse IgG (H+L) in PBS-BSA for 60 min. The specimens were washed 3-5 times with PBS after every step. The glass slides were stored at 4° C. in the dark.
(§6) The mechanism of the apoptosis observed in response to either A3 agonists was investigated.

Data set [8] deals with bak protein in U-937 cells. Description: expression of apoptosis-inducing protein bak by immunofluorescence, U-937 cells. The class given is cell-based. As to the method: as §5, §6
In data set [9] the test system is bak in MCF7 breast adenocarcinoma cells. The experiment in a line: expression of bak, MCF7 cells. Type of data set: cell-based. The following applies: 10 μM. As to the method:
as §5
(§7) Various other cell lines were investigated for the expression of bak in response to the A3 agonist.

In data set [10] the test system is bak in 1321N astrocytoma cells. The experiment in a line: expression of bak, 1321N cells. The class given is cell-based. The following applies: 10 μM. On the procedure: as §5, §7
Another data set relates to A3 specific binding. Description: A3 specific binding after blocking A1 and A2 specific binding sites with a xanthine amino congener. The following applies: A1 and A2 sites blocked with xanthine amino congener. The text has this: Adenosine receptors have been implicated in the bronchoconstriction (BC) in allergic asthma.
The target in another data set is T1, A2a receptors (Rattus norvegicus, UniProt P30543).
T1 construct: Displacement of specific [^3 H]; from tissue; host or cells: rat striatal membranes
T1 sequence (P30543 whole entry): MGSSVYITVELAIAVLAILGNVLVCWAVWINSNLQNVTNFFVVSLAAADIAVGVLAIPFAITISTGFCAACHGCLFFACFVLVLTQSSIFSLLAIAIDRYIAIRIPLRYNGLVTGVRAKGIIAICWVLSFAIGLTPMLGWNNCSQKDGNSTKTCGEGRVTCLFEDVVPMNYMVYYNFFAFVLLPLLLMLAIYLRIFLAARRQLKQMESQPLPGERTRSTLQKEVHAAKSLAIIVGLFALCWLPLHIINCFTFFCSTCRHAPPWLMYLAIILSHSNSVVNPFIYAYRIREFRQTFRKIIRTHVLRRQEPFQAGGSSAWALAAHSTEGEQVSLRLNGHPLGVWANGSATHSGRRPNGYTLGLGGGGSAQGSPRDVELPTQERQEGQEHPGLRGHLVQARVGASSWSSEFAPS
Description: radioligand binding, displacement of specific [3H]CGS 21680 binding in rat striatal membranes. The following applies: Table 11; 10^-4 M; read-out: displacement of specific binding rA2A.

Another data set relates to Female Mongolian gerbils. The experiment in a line: bilateral carotid occlusion (stroke) in gerbils, survival and intact neurons. The following applies: for survival rate after ischemia: 100 μg/kg 15 min after occlusion; for intact neurons: 100 μg/kg. The class given is in vivo, Mongolian gerbil.
In another data set the test system is rabbit lung. The experiment in a line: bronchoconstriction / dynamic compliance (Cdyn) in allergic rabbits. The following applies: antagonist 10^-5 M, 2 minute aerosol, co-administered with agonist. The class given is in vivo, New Zealand white rabbit.
The mark [11] stands for this setting: sublethal concentrations incl. 10 nM.
[12] abbreviates: 10 nM Cl-IB-MECA with either antagonist.
Setting [13] is: 10 nM alone, range covers both cell lines and controls.
The mark [14] stands for this setting: Table 17, Cl-IB-MECA 10 nM, 48 hour.
Setting [15] is: antagonist 0.5 μM plus 0.01 or 1.0 μM Cl-IB-MECA.
Setting [16] is: Table 17, antagonist 50 nM plus Cl-IB-MECA 10 nM, 48 hour.
[17] abbreviates: Table 17, antagonist 50 nM, 48 hour.

Data on three compounds can be found in patent US6066642A, “Dihydropyridine-, pyridine-, benzopyran-4-one- and triazoloquinazoline derivative, their preparation and their use as adenosine receptor antagonists” (priority 1998, dated 2000).

Description for A2a receptors: ^b Displacement of specific [^3 H]
or as a percentage of specific binding displaced at 100 μM.
Description for Female Mongolian gerbils: Control gerbils were injected with saline. The survival of the animals was followed as a function of time after ischemia.
The number of intact neurons was also counted.
Description for rabbit lung: New Zealand white pasteurella free rabbit litter mates were exposed to A3 adenosine agonist APNEA, IB-MECA, or Cl-IB-MECA and the percent change in dynamic compliance (Cdyn) was measured as a function of the adenosine dose using known procedures. […] Allergy was induced in the rabbits using dust mites.
The antagonist was administered at a constant dose of 10^-5 M through a 2 minute aerosilization, followed by a 15 minute wait before the measurement of dynamic compliance.

Turning to `CNC(=O)[C@H]1O[C@@H](n2cnc3c(NCc4cccc(I)c4)nc(Cl)nc32)[C@H](O)[C@@H]1O` [Cl-IB-MECA, N^6-(3-iodobenzyl)-2-chloro-adenosine-5'-N-methyluronamide], in the data set on HL-60 cells [1] (48 hours), the “concentration at which plateau of apoptosis begins, HL-60” value is “approximately 10 μM” and the “plateau in the percent of apoptotic cells, HL-60” value is on record as 30-50%. Moreover, the “apoptosis in HL-60 cells” value in the data set with HL-60 cells [1] (high concentrations (≥μM)) is listed as “caused apoptosis”. Further, in the data set on HL-60 cells [1] (≤1 μM), the “apoptosis at lower concentrations, HL-60” value is recorded as “did not significantly promote apoptosis”. Besides, in the data set with U-937 cells [2] (48 hours), the “concentration at which plateau of apoptosis begins, U-937” value is reported as “approximately 10 μM” and the “plateau in the percent of apoptotic cells, U-937” value is recorded as 30-50%. Besides, in the data set with U-937 cells [2] (high concentrations (≥μM)), the “apoptosis in U-937 cells” value is “A similar response was observed”. Moreover, in the data set with U-937 cells [2] (≤1 μM), the “apoptosis at lower concentrations, U-937” value is listed as “did not significantly promote apoptosis”. For the same compound, the “growth curve, HL-60” value in the data set on HL-60 cells [3] (0.01 or 1.0 μM alone, 9 days) is reported as “no deviation from this growth curve was observed”. In addition, the “death of HL-60 cells in culture” value in the data set with HL-60 cells [3] (20 or 40 μM, after 4 days) is reported as over 90%. Moreover, the “effect of agonist on impairment of proliferation by antagonist, HL-60” value in the data set with HL-60 cells [3] (setting [11]) was “reversed the impairment of cell proliferation”. Also, the “general cell death at lower concentrations, HL-60” value with HL-60 cells [3] (≤1 μM, trypan blue) is listed as “did not significantly promote”. Also, the “growth curve, U-937” value in the data set on U-937 cells [4] (0.01 or 1.0 μM alone, 9 days) is recorded as “no deviation from this growth curve was observed”. In the data set on U-937 cells [4] (setting [11]), the “effect of agonist on impairment of proliferation by antagonist, U-937” value was “reversed the impairment of cell proliferation”. The “general cell death at lower concentrations, U-937” value with U-937 cells [4] (≤1 μM, trypan blue) is recorded as “did not significantly promote”. Further, the “coadministration with antagonist, apoptotic cells, HL-60” value with HL-60 cells [5] (setting [12]) is given as “suppressed the increase in apoptotic cells”. Moreover, the “apoptosis (TUNEL), Cl-IB-MECA alone, HL-60” value in the data set on HL-60 cells [5] (setting [13]) is listed as 5-7%. Also, the “DNA fragmentation labeling (TUNEL), HL-60” value in the data set on HL-60 cells [5] (30 μM) is on record as “approximately 50%”. Besides, in the data set on HL-60 cells [5] (setting [14]), the “Percentage of apoptotic cells, HL-60, Cl-IB-MECA alone” value is 7.1 Percentage. Further, the “coadministration with antagonist, apoptotic cells, U-937” value in the data set on U-937 cells [6] (setting [12]) is “suppressed the increase in apoptotic cells”. Also, in the data set with U-937 cells [6] (setting [13]), the “apoptosis (TUNEL), Cl-IB-MECA alone, U-937” value is recorded as 5-7%. Further, in the data set on U-937 cells [6] (30 μM), the “DNA fragmentation labeling (TUNEL), U-937” value is “approximately 50%”. The “Percentage of apoptotic cells, U937, Cl-IB-MECA alone” value in the data set with U-937 cells [6] (setting [14]) amounted to 5.6 Percentage. In data set [7] (30 μM), the “expression of bak, HL-60” value is on record as “induced a significant level of expression of bak”. For the same compound, the “expression of bak, HL-60” value in data set [7] (≤1 μM) is given as “not concentrations ≤1 μM”. For the same compound, in [8] (30 μM), the “expression of bak, U-937” value is recorded as “induced a significant level of expression of bak”. Moreover, in [8] (≤1 μM), the “expression of bak, U-937” value is recorded as “not concentrations ≤1 μM”. Besides, the “expression of bak, MCF7” value in data set [9] is “found to induce the expression of bak”. Further, the “expression of bak, 1321N” value in [10] is recorded as “found to induce the expression of bak”.
Consider `Nc1ccc(CCNc2ncnc3c2ncn3[C@@H]2O[C@H](CO)[C@@H](O)[C@H]2O)cc1` [APNEA], for which the “displacement of A3 specific binding” value with A3 specific binding is recorded as “A3 specific binding was displaced”.
Consider `CCOC(=O)C1=C(C)NC(c2ccccc2)=C(C(=O)OCc2ccccc2)C1C#Cc1ccccc1` (stereo not shown) [Compound 101], for which the inhibition at 100 µM on A2a receptors was under 10%. The “growth curve with A3 antagonist plus Cl-IB-MECA, HL-60” value in the data set on HL-60 cells [3] (setting [15]) is reported as “the growth curves were nearly coincident with control curves”. The “growth curve with A3 antagonist plus Cl-IB-MECA, U-937” value in the data set with U-937 cells [4] (setting [15]) is given as “the growth curves were nearly coincident with control curves”. Besides, the “fluorescent labeling of apoptotic cells, HL-60” value with HL-60 cells [5] (50 nM, 24 h, approximately) is reported as 30-40%. Also, the “Percentage of apoptotic cells, HL-60, + Cl-IB-MECA” value in the data set with HL-60 cells [5] (setting [16]) came to 11.6 Percentage. Further, the “Percentage of apoptotic cells, HL-60” value in the data set on HL-60 cells [5] (setting [17]) was 39.7 Percentage. Moreover, the “fluorescent labeling of apoptotic cells, U-937” value in the data set on U-937 cells [6] (50 nM, 24 h, approximately) is listed as 30-40%. In the data set on U-937 cells [6] (setting [16]), the “Percentage of apoptotic cells, U937, + Cl-IB-MECA” value was 10.4 Percentage. For the same compound, the “Percentage of apoptotic cells, U937” value in the data set with U-937 cells [6] (setting [17]) is reported as 27.3 Percentage. Moreover, the “bak labeling, HL-60” value in data set [7] (24 hours) is given as “present”. In addition, the “bak labeling, U-937” value in data set [8] (24 hours) is “present”. Further, in the data set with Female Mongolian gerbils (after 7 days), the “survival rate after ischemia” value is listed as 90% and the intact neurons came to 75%. Also, in the data set on Female Mongolian gerbils (after 90 days), the “survival rate after ischemia” value is reported as 80% and the intact neurons amounted to 90%. The “percent change in dynamic compliance (Cdyn)” value in the data set on rabbit lung was “much reduced”.
